Data: patent US20140377216A1, “ANTICANCER FUSION PROTEIN” (ADAMED SP. Z.O.O., priority 2011, published 2014)
Where “and” joins values, the source holds several entries; their conditions need not be identical. Equal values may be shown once.

Experiments:
[1] = test system: human liver cancer HepG2; assay: Liver cancer model, Experiment A: HepG2 xenograft; format: in vivo, Crl:SHO-PrkdcscidHrhr mice; conditions: 20 mg/kg i.p.
Method: (§1) Tumor size was measured using electronic calliper, tumor volume was calculated using the formula: (a^2×b)/2, where a=shorter diagonal of the tumor (mm) and b=longer diagonal of the tumor (mm). Inhibition of tumor growth was calculated using the formula:
(§2) TGI[%](Tumor growth inhibition)=(WT/WC)×100−100%
(§3) wherein WT is the average tumor volume in the treatment group, and WC is the average tumor volume in the control group.
On day 0 Crl:SHO-Prkdc^scidHr^hr mice were grafted subcutaneously (s.c.) in the right flank region with 7×10^6 of HepG2 cells suspended in 0.1 ml of the 3:1 mixture HBSS buffer:Matrigel using syringe with a 0.5×25 mm needle (Bogmark). When tumors reached the size of 64-529 mm^3 (day 25), mice were randomized to obtain the average size of tumors in the group of −230 mm^3 and assigned to treatment groups. The treatment groups were administered with the preparations of fusion protein of the invention of Ex. 16^b (80 mg/kg) and rhTRAIL114-281 (50 mg/kg) as a comparison and reference compound 5-FU (5-Fluorouracil, Sigma-Aldrich) (20 mg/kg). The preparations were administered intravenously (i.v.) six times every second day, 5-FU was applied intraperitoneally (i.p.). The control group received formulation buffer.
When the therapeutic group reached the average tumor size of ˜1000 mm^3, mice were sacrificed by cervical dislocation.

[2] = test system: human liver cancer PLC/PRF/5; assay: Liver cancer model, Experiment B: PLC/PRF/5 xenograft; format: in vivo, Crl:SHO-PrkdcscidHrhr mice; conditions: 30 mg/kg i.p., schedule (q1dx5)×2, 43th day
Method: as §1, §2, §3
On day 0 Crl:SHO-Prkdc^scidHr^hr mice were grafted subcutaneously (s.c.) in the right flank region with 7×10^6 of PLC/PRF/5 cells suspended in 0.1 ml of the 3:1 mixture HBSS buffer:Matrigel using syringe with a 0.5×25 mm needle (Bogmark). When tumors reached the size of 72-536 mm^3 (day 29), mice were randomized to obtain the average size of tumors in the group of ˜205 mm^3 and assigned to treatment groups. The treatment groups were administered with the preparations of fusion protein of the invention of Ex. 16^b (50 mg/kg) and rhTRAIL114-281 (50 mg/kg) as a comparison and reference compound 5-FU (5-Fluorouracil, Sigma-Aldrich) (30 mg/kg). The preparations were administered intravenously (i.v.) six times every second day, except 5-FU, which was applied intraperitoneally (i.p.) in the schedule (q1dx5)×2. The control group received formulation buffer.
When an experimental group reached the average tumor size of ˜1000 mm^3, mice were sacrificed by cervical dislocation.

[3] = test system: Caki-1; assay: MTT cytotoxicity test on Caki-1; format: cell-based, human; conditions: continuous incubation over 72 h
[4] = test system: SK-HEP-1; assay: MTT cytotoxicity test on SK-HEP-1; format: cell-based, human; conditions: continuous incubation over 72 h
[5] = test system: MCF10A; assay: MTT cytotoxicity test on MCF10A; format: cell-based; conditions: continuous incubation over 72 h
[6] = test system: SW 620; assay: MTT cytotoxicity test on SW 620; format: cell-based, human; conditions: continuous incubation over 72 h
[7] = test system: MES-SA; assay: MTT cytotoxicity test on MES-SA; format: cell-based, human; conditions: continuous incubation over 72 h
[8] = test system: HepG2; assay: MTT cytotoxicity test on HepG2; format: cell-based, human; conditions: continuous incubation over 72 h
[9] = test system: LNCaP; assay: MTT cytotoxicity test on LNCaP; format: cell-based, human; conditions: continuous incubation over 72 h
[10] = test system: A498; assay: MTT cytotoxicity test on A498; format: cell-based, human; conditions: continuous incubation over 72 h
[11] = test system: OV-CAR-3; assay: MTT cytotoxicity test on OV-CAR-3; format: cell-based, human; conditions: continuous incubation over 72 h
[12] = test system: HUV-EC-C; assay: MTT cytotoxicity test on HUV-EC-C (healthy control cells); format: cell-based, human; conditions: continuous incubation over 72 h
From the text: (§4) MTT assay is a colorimetric assay used to measure proliferation, viability and cytotoxicity of cells. It consists in decomposition of a yellow tetrazolium salt MTT (4,5-dimethyl-2-thiazolyl)-2,5-diphenyltetrazolium bromide) to the water-insoluble purple dye formazan by mitochondrial enzyme succinate-tetrazolium reductase 1. MTT reduction occurs only in living cells. Data analysis consists in determining IC50 concentration of the protein (in ng/ml), at which the 50% reduction in the number of cells occurs in the population treated compared to control cells. Results were analyzed using GraphPad Prism 5.0 software. The test was performed according to the literature descriptions (Celis, J E, (1998). Cell Biology, a Laboratory Handbook, second edition, Academic Press, San Diego; Yang, Y., Koh, L W, Tsai, J H., (2004); Involvement of viral and chemical factors with oral cancer in Taiwan, Jpn J Clin Oncol, 34 (4), 176-183).
Cell culture medium was diluted to a defined density (10^4-10^5 cells per 100 μl). Then 100 μl of appropriately diluted cell suspension was applied to a 96-well plate in triplicates. […] After stirring, the absorbance was measured at 570 nm (reference filter 690 nm). […]

[13] = test system: SK-OV-3; assay: MTT cytotoxicity test on SK-OV-3; format: cell-based, human; conditions: continuous incubation over 72 h
[14] = test system: MES-SA/Dx5; assay: MTT cytotoxicity test on MES-SA/Dx5; format: cell-based, human; conditions: continuous incubation over 72 h
[15] = test system: PLC/PRF/5; assay: MTT cytotoxicity test on PLC/PRF/5; format: cell-based, human; conditions: continuous incubation over 72 h
[16] = test system: BxPC3; assay: MTT cytotoxicity test on BxPC3; format: cell-based, human; conditions: continuous incubation over 72 h
[17] = test system: Panc03.27; assay: MTT cytotoxicity test on Panc03.27; format: cell-based, human; conditions: continuous incubation over 72 h
[18] = test system: UM-UC-3; assay: MTT cytotoxicity test on UM-UC-3; format: cell-based, human; conditions: continuous incubation over 72 h
[19] = test system: MES-SA/Mx2; assay: MTT cytotoxicity test on MES-SA/Mx2; format: cell-based, human; conditions: continuous incubation over 72 h
[20] = test system: PANC-1; assay: MTT cytotoxicity test on PANC-1; format: cell-based, human; conditions: continuous incubation over 72 h
[21] = test system: SK-MES-1; assay: MTT cytotoxicity test on SK-MES-1; format: cell-based, human; conditions: continuous incubation over 72 h
[22] = test system: HCT116; assay: MTT cytotoxicity test on HCT116; format: cell-based, human; conditions: continuous incubation over 72 h
[23] = test system: HT-1080; assay: MTT cytotoxicity test on HT-1080; format: cell-based, human; conditions: continuous incubation over 72 h
[24] = test system: JURKAT A3; assay: Cytotoxicity test on JURKAT A3 (nonadherent cells); format: cell-based, human; conditions: continuous incubation over 72 h, test MTT
From the text: as §4
Cell culture medium was diluted to a defined density (10^4-10^5 cells per 100 μl). […] After stirring, the absorbance was measured at 570 nm (reference filter 690 nm).
EZ4U (Biomedica) test was used for testing cytotoxic activity of the proteins in nonadherent cell lines. […] On this basis IC50 values were determined (as an average of two independent experiments) using the GraphPad Prism 5 software. […]

[25] = test system: NCI-H460; assay: MTT cytotoxicity test on NCI-H460; format: cell-based, human; conditions: continuous incubation over 72 h
[26] = test system: MCF-7; assay: MTT cytotoxicity test on MCF-7; format: cell-based, human; conditions: continuous incubation over 72 h
[27] = test system: MDA-MB-435S; assay: MTT cytotoxicity test on MDA-MB-435S; format: cell-based, human; conditions: continuous incubation over 72 h
[28] = test system: MDA-MB-231; assay: MTT cytotoxicity test on MDA-MB-231; format: cell-based, human; conditions: continuous incubation over 72 h
[29] = test system: 293; assay: MTT cytotoxicity test on 293; format: cell-based, human; conditions: continuous incubation over 72 h
[30] = test system: COLO 205; assay: MTT cytotoxicity test on COLO 205; format: cell-based, human; conditions: continuous incubation over 72 h
[31] = test system: A549; assay: MTT cytotoxicity test on A549; format: cell-based, human; conditions: continuous incubation over 72 h
[32] = test system: HT 144; assay: MTT cytotoxicity test on HT 144; format: cell-based, human; conditions: continuous incubation over 72 h
[33] = test system: pancreatic carcinoma MIA PaCa-2; assay: Pancreas cancer model, Experiment B: MIA PaCa-2 xenograft; format: in vivo, Crl:SHO-PrkdcscidHrhr mice; conditions: 50 mg/kg i.p. six times every second day, 61th day
Method: as §1, §2, §3
On day 0 Crl:SHO-Prkdc^scidHr^hr mice were grafted subcutaneously (s.c.) in the right flank region with 5×10^6 of MIA PaCa-2 cells suspended in 0.1 ml of 3:1 mixture HBSS buffer:Matrigel using syringe with a 0.5×25 mm needle (Bogmark). When tumors reached the size of 60-398 mm^3 (day 20), mice were randomized to obtain the average size of tumors in the group of ˜170 mm^3 and assigned to treatment groups. The treatment groups were administered with the preparations of fusion protein of the invention of Ex. 16^b (50 mg/kg) and rhTRAIL114-281 (50 mg/kg) as a comparison and reference compound gemcytabine (Gemzar, Eli Lilly) (50 mg/kg). The preparations were administered intravenously (i.v.) six times every second day, gemcytabine was applied intraperitoneally (i.p.) in the same schedule. The control group received formulation buffer.
When a therapeutic group reached the average tumor size of ˜1000 mm^3, mice were sacrificed by the cervical dislocation.

O=c1[nH]cc(F)c(=O)[nH]1 [5-FU, 5-Fluorouracil]
efficacy against HepG2 tumors [1]: didn't show any efficacy | TGI (tumor growth inhibition) relative to the control [2]: 32.2%

rhTRAIL95-281: TRAIL comparator protein as labelled in cytotoxicity Tables 4-4d (hTRAIL fragment 95-281)
IC50 [3]: 0.01342 µg/mL | IC50 [4]: >2 µg/mL | IC50 [5]: >10 µg/mL | IC50 ([5]; listed as TRAIL 95-281): >2 µg/mL | IC50 [6]: >2 µg/mL | IC50 [7]: >10 µg/mL | IC50 ([7]; listed as TRAIL 95-281): >2 µg/mL | IC50 ([8]; listed as TRAIL 95-281): >2 µg/mL | IC50 ([8]; listed as rhTRAIL 95-281): >10 µg/mL | IC50 [9]: 2.052 µg/mL | IC50 [10]: 1.611 µg/mL | IC50 ([11]; listed as TRAIL 95-281): 0.963 µg/mL | IC50 ([11]; listed as rhTRAIL 95-281): 0.963 µg/mL | IC50 [12]: >2 µg/mL | IC50 [13]: >2 µg/mL | IC50 [14]: 0.02915 µg/mL | IC50 ([14]; listed as TRAIL 95-281): 0.02759 µg/mL | IC50 [15]: >9 µg/mL | IC50 ([15]; listed as TRAIL 95-281): >2 µg/mL | IC50 [16]: 0.06471 µg/mL and 0.0606 µg/mL | IC50 [17]: 0.315 µg/mL | IC50 [18]: 2.242 µg/mL | IC50 [19]: 0.03895 µg/mL | IC50 [20]: >10 µg/mL | IC50 ([20]; listed as TRAIL 95-281): >2 µg/mL | IC50 [21]: 0.03935 µg/mL | IC50 ([21]; listed as TRAIL 95-281): 0.1007 µg/mL | IC50 [22]: 7.557 µg/mL | IC50 ([22]; listed as TRAIL 95-281): >2 µg/mL | IC50 [23]: >2 µg/mL | IC50 [24]: >10 µg/mL | IC50 [25]: 5.889 µg/mL | IC50 ([25]; listed as TRAIL 95-281): 0.438 µg/mL | IC50 [26]: >2 µg/mL | IC50 [27]: >2 µg/mL | IC50 [28]: >2 µg/mL | IC50 [29]: >10 µg/mL | IC50 [30]: 0.05902 µg/mL | IC50 [31]: >10 µg/mL | IC50 ([31]; listed as TRAIL 95-281): >2 µg/mL | IC50 ([32]; listed as TRAIL 95-281): 1.134 µg/mL | IC50 ([32]; listed as rhTRAIL 95-281): 1.73 µg/mL

Nc1ccn([C@@H]2O[C@H](CO)[C@@H](O)C2(F)F)c(=O)n1 [gemcytabine]
TGI (tumor growth inhibition) relative to the control [33]: 42.6%
